Data as given in publication PMC9788418, “Design, Synthesis and Biological Evaluation of Syn and Anti-like Double Warhead Quinolinones Bearing Dihydroxy Naphthalene Moiety as Epidermal Growth Factor Receptor Inhibitors with Potential Apoptotic Antiproliferative Action” (Molecules, 2022).

Columns and labels:
[1] = system: Panc-1 (pancreas cancer cell line); assay: Antiproliferative assay; format: cell-based, human; conditions: Homo sapiens, PANC-1; read-out: Antiproliferative Activity IC50 ± SEM, Panc-1
Description: 4.2. Biological evaluation
4.2.1. Cytotoxic activity using MTT Assay and evaluation of IC50 […]
cells were seeded at a density of 10^4 cells mL-1 in flat-bottomed culture plates containing 96 wells each. After 24 h, medium was removed from the plates and the compounds in (in 0.1% DMSO) were added (in 200 μL medium to yield a final concentration of 0.1% v/v) to the wells of plates. A single […]
incubation, medium was removed completely from the plates followed by addition of MTT (0.4 mg/mL in medium) to each well and subsequent incubation of plates for 3h. MTT (along with the medium) was removed and DMSO (150μL) was added to each well of the culture plates, followed by vortexing and subsequent measurement of absorbance (at 540 nm) using microplate reader. The data […]
4.2.1.2. Assay for antiproliferative effect
To explore the antiproliferative potential of compounds MTT assay was performed according to previously reported procedure using different cell lines to explore the antiproliferative potential of compounds propidium iodide fluorescence assay was performed using different cell lines. To calculate the total nuclear DNA, a fluorescent dye (propidium iodide, PI) is used which can attach to the DNA, thus offering a quick and precise technique. PI cannot pass through the cell membrane and its signal intensity can be considered as directly proportional to quantity of cellular DNA. Cells whose cell membranes are damaged or have changed permeability are counted as dead ones. The assay was performed by seeding the cells of different cell lines at a density of 3000-7500 cells/well (in 200µl […]
atmospheric conditions. The medium was removed; the compounds were added to the plates at 10 µM concentrations (in 0.1% DMSO) in triplicates, followed by incubation for 48 h. DMSO (0.1%) was used as control. After incubation, medium was removed followed by the addition of PI (25 µl, 50µg/mL in water/medium) to each well of the plates. At -80 °C, the plates were allowed to freeze for 24 h, followed by thawing at 25 °C. A fluorometer (Polar-Star BMG Tech) was used to record the readings at excitation and emission wavelengths of 530 and 620 nm for each well. The percentage cytotoxicity of compounds was calculated using the following formula:
Where ATC= Absorbance of treated cells and AC= Absorbance of control. […]
positive control in the assay.

caspase-8 = assay: Caspase-8 activation assay; format: cell-based, human; conditions: for Caspase-8 Fold Change: vs control cells

| Compound | IC50 [1] [µM] | Caspase-8 Conc (caspase-8) [ng/mL] | Caspase-8 Fold Change (caspase-8) | melting point [°C] |
| --- | --- | --- | --- | --- |
| Cc1ccc2[nH]c(=O)cc(-n3cc(COc4cccc5cccc(OCc6cn(-c7cc(=O)[nH]c8ccc(C)cc78)nn6)c45)nn3)c2c1 [Compound 4b, 4,4′-(((naphthalene-1,8-diylbis(oxy))bis(methylene))bis(1H-1,2,3-triazole-4,1-diyl))-bis(6-methylquinolin-2(1H)-one)] | 0.046 ± 0.004 | 0.80 | 4 | – |
| O=c1cc(-n2cc(COc3cccc4cccc(OCc5cn(-c6cc(=O)[nH]c7ccccc67)nn5)c34)nn2)c2ccccc2[nH]1 [Compound 4a, 4,4′-(((naphthalene-1,8-diylbis(oxy))bis(methylene))bis(1H-1,2,3-triazole-4,1-diyl))-bis-(quinolin-2(1H)-one)] | 0.036 ± 0.003 | 1.20 | 6 | > 360 |
